Source: ChEMBL document CHEMBL1141500, “Thiol-based angiotensin-converting enzyme 2 inhibitors: P1' modifications for the exploration of the S1' subsite” (Bioorg Med Chem Lett, 2008)

Assays:
[1] = organism: Homo sapiens; test: Selectivity for human recombinant ACE2 over human recombinant ACE
[2] = biological target: T1, Carboxypeptidase A1 (Homo sapiens, UniProt P15085); test: Inhibition of human recombinant CpA by fluorescence assay; settings: read-out: Ki app
T1 sequence (P15085 whole entry): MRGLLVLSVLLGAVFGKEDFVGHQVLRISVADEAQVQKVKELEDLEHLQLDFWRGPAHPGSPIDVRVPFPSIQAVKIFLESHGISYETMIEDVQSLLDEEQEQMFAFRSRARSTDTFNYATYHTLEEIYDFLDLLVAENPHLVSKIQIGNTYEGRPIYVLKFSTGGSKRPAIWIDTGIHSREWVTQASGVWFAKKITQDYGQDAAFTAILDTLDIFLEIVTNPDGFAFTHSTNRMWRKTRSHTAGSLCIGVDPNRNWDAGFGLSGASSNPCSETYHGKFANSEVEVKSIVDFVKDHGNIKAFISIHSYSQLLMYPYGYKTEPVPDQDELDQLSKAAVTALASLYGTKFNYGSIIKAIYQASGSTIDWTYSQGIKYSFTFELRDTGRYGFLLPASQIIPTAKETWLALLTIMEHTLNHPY

[3] = organism: Homo sapiens; test: Selectivity for human recombinant ACE2 over human recombinant CpA
[4] = biological target: Neprilysin (Homo sapiens, UniProt P08473); test: Inhibition of human recombinant NEP by fluorescence assay; settings: read-out: Ki app
Chain of Neprilysin (P08473 whole entry): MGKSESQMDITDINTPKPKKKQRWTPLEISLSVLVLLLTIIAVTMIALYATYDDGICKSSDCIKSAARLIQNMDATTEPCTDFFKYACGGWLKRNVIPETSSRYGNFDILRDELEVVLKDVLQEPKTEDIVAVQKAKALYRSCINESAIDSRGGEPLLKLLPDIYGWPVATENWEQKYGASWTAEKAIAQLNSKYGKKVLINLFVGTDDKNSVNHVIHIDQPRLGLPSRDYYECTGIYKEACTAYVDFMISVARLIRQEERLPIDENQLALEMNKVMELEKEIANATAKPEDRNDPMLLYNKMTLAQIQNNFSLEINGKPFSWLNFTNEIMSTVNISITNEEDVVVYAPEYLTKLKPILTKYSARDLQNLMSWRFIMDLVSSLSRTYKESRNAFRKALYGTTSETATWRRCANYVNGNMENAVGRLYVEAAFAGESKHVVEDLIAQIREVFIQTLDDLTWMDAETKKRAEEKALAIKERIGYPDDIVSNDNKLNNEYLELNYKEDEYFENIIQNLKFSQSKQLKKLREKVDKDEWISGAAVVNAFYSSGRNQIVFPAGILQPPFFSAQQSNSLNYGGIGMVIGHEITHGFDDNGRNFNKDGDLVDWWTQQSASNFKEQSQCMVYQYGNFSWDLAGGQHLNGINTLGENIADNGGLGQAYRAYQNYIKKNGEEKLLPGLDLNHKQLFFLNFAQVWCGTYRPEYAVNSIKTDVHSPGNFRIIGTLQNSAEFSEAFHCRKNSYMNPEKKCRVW

[5] = biological target: T2, Angiotensin-converting enzyme 2 (Homo sapiens, UniProt Q9BYF1); test: Inhibition of human recombinant ACE2 by fluorescence assay; settings: read-out: Ki app
T2 sequence (Q9BYF1 whole entry): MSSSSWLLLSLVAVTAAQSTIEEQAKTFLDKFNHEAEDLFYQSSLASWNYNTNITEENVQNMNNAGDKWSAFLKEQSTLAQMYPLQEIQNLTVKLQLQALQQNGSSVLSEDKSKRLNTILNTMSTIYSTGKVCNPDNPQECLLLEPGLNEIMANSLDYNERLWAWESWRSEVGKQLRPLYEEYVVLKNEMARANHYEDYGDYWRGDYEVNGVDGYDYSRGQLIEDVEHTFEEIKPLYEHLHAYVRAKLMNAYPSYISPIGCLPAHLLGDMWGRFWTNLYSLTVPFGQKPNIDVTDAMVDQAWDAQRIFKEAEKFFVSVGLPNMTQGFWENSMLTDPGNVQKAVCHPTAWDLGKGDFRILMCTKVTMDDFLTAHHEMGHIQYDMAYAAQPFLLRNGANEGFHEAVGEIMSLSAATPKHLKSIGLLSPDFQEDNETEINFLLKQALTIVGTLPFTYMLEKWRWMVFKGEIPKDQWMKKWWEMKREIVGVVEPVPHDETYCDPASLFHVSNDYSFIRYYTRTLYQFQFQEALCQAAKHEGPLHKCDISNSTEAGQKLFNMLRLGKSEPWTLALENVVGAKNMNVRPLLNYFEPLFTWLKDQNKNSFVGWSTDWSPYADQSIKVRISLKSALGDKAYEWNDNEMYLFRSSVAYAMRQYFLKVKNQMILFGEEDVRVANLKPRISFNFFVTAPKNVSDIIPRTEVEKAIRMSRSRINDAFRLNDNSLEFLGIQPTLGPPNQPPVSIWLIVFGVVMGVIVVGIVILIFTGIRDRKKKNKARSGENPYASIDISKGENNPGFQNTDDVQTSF

[6] = biological target: Angiotensin-converting enzyme (Homo sapiens, UniProt P12821); test: Inhibition of human recombinant ACE by fluorescence assay; settings: read-out: Ki app
Chain of Angiotensin-converting enzyme (P12821 whole entry): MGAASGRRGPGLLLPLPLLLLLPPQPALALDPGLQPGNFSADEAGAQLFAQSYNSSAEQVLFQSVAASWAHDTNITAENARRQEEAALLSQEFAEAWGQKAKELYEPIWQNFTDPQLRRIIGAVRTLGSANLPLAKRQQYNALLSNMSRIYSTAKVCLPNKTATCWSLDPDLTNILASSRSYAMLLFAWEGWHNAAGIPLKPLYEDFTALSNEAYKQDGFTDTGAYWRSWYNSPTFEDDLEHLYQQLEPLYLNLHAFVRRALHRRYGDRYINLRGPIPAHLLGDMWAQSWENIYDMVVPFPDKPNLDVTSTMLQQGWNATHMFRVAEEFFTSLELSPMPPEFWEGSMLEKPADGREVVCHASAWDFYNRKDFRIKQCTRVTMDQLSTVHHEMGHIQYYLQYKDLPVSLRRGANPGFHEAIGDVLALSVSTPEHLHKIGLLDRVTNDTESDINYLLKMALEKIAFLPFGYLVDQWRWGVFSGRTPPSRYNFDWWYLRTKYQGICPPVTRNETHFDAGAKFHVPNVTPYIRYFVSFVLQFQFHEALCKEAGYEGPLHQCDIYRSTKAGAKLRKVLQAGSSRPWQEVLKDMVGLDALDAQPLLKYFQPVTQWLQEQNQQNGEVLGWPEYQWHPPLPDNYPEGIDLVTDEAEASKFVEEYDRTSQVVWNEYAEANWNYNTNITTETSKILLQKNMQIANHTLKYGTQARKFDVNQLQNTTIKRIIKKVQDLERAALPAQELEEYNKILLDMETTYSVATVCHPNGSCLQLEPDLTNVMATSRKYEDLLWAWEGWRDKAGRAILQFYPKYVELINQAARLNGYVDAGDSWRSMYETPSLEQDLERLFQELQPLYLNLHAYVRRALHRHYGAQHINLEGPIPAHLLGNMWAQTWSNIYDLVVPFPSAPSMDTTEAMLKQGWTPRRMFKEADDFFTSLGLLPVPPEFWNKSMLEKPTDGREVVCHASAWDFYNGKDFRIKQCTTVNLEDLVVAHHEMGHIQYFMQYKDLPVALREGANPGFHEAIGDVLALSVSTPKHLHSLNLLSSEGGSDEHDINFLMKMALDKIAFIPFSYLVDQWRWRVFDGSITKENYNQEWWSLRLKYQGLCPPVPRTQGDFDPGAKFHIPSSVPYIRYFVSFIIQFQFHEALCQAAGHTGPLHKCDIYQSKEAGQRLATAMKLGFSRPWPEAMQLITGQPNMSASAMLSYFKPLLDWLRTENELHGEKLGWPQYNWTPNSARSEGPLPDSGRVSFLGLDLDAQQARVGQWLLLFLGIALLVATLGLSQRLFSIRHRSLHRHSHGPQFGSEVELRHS

[7] = organism: Homo sapiens; test: Selectivity for human recombinant ACE2 over human recombinant NEP
[8] = biological target: T2, Angiotensin-converting enzyme 2; test: Inhibition of ACE2

CC[C@@H](C)[C@H](S)C(=O)N[C@@H](Cc1ccc2ccccc2c1)C(=O)O
Selectivity ratio [1]: > 100 | Ki [2]: 7.2 µM | Selectivity ratio [3]: > 100 | Ki [4]: 0.046 µM | Ki [5]: 0.0024 µM | Ki [6]: 0.31 µM

CC[C@@H](C)[C@H](S)C(=O)N[C@@H](Cc1ccccc1OCc1ccccc1)C(=O)O
Ki [2]: 1.6 µM | Ki [4]: 0.12 µM | Selectivity ratio [7]: 20 | Ki [5]: 0.006 µM | Ki [6]: 0.77 µM

CC[C@@H](C)[C@H](S)C(=O)N[C@@H](Cc1ccc(OCc2ccc(C(F)(F)F)cc2)cc1)C(=O)O
Ki [2]: 4.6 µM | Ki [4]: 1.5 µM | Ki [5]: 0.035 µM | Ki [6]: 2.6 µM

CC[C@@H](C)[C@H](S)C(=O)N[C@@H](Cc1cccc(-c2ccccc2)c1)C(=O)O
Ki [2]: 5 µM | Ki [4]: 0.019 µM | Ki [5]: 0.0022 µM | Ki [6]: 1 µM

CC[C@@H](C)[C@H](S)C(=O)N[C@@H](Cc1ccc(Oc2ccccc2)cc1)C(=O)O
Selectivity ratio [1]: > 100 | Ki [2]: 8.9 µM | Ki [4]: 0.01 µM | Ki [5]: 0.0022 µM | Ki [6]: 0.25 µM

CC[C@@H](C)[C@H](S)C(=O)N[C@@H](Cc1ccc(OCc2ccc(F)c(F)c2)cc1)C(=O)O
Selectivity ratio [1]: > 750 | Ki [2]: 3.3 µM | Selectivity ratio [3]: > 750 | Ki [4]: 0.64 µM | Ki [5]: 0.00085 µM | Ki [6]: 1.8 µM

CC[C@@H](C)[C@H](S)C(=O)N[C@@H](Cc1cccc(OCc2ccccc2)c1)C(=O)O
Ki [2]: 5 µM | Ki [4]: 0.037 µM | Selectivity ratio [7]: 15 | Ki [5]: 0.0024 µM | Ki [6]: 0.75 µM

NCCNCCN1CC1
IC50 [8]: 57 µM

CC[C@@H](C)[C@H](S)C(=O)N[C@@H](Cc1cccc2ccccc12)C(=O)O
Selectivity ratio [1]: > 100 | Ki [2]: 3.6 µM | Selectivity ratio [3]: > 100 | Ki [4]: 0.012 µM | Ki [5]: 0.0022 µM | Ki [6]: 1.8 µM

CC[C@@H](C)[C@H](S)C(=O)NCC(=O)O
Ki [2]: 35 µM | Ki [4]: 5.1 µM | Ki [5]: 0.09 µM | Ki [6]: 0.25 µM

CC[C@@H](C)[C@H](S)C(=O)N[C@@H](Cc1ccc(OCc2ccc(F)cc2F)cc1)C(=O)O
Ki [2]: 1.9 µM | Ki [4]: 0.075 µM | Ki [5]: 0.002 µM | Ki [6]: 0.95 µM

CC[C@@H](C)[C@H](S)C(=O)N[C@@H](Cc1ccccc1)C(=O)O
Ki [2]: 0.53 µM | Ki [4]: 0.035 µM | Ki [5]: 0.0015 µM | Ki [6]: 0.57 µM

CC[C@@H](C)[C@H](S)C(=O)N[C@@H](Cc1cccc(Oc2ccccc2)c1)C(=O)O
Ki [2]: 14 µM | Ki [4]: 0.079 µM | Ki [5]: 0.0058 µM | Ki [6]: 1.1 µM

CC[C@@H](C)[C@H](S)C(=O)N[C@@H](Cc1ccc(O)cc1)C(=O)O
Ki [2]: 0.35 µM | Ki [4]: 0.075 µM | Ki [5]: 0.0013 µM | Ki [6]: 0.41 µM

CC(=O)NCC(=O)N[C@@H](CC(=O)O)C(=O)N[C@@H](Cc1ccc(O)cc1)C(=O)N[C@@H](CO)C(=O)N[C@@H](Cc1cnc[nH]1)C(=O)N[C@H]1CSSC[C@@H](C(=O)N[C@H](C(=O)N[C@@H](Cc2ccc(O)cc2)C(=O)N2CCC[C@H]2C(=O)N[C@@H](CC(=O)O)C(=O)N2CCC[C@H]2C(=O)N[C@@H](CCC(=O)O)C(=O)NCC(=O)NCC(=O)NCC(N)=O)[C@@H](C)O)NC(=O)[C@H](CCCCN)NC(=O)[C@H](Cc2c[nH]c3ccccc23)NC(=O)[C@H](Cc2c[nH]c3ccccc23)NC(=O)[C@@H]2CCCN2C(=O)[C@H](Cc2ccc(O)cc2)NC(=O)[C@H](Cc2ccc(O)cc2)NC(=O)[C@H](CCCNC(=N)N)NC(=O)[C@H](CC(C)C)NC(=O)[C@@H]2CCCN2C(=O)[C@H](CO)NC1=O
IC50 [8]: 0.01 µM

CC[C@@H](C)[C@H](S)C(=O)N[C@@H](Cc1ccccc1Oc1ccccc1)C(=O)O
Ki [2]: 2.3 µM | Ki [4]: 0.18 µM | Selectivity ratio [7]: 200 | Ki [5]: 0.0009 µM | Ki [6]: 5 µM

CC[C@@H](C)[C@H](S)C(=O)N[C@@H](Cc1ccc(OCc2ccc(F)cc2)cc1)C(=O)O
Ki [2]: 16 µM | Ki [4]: 0.18 µM | Ki [5]: 0.0025 µM | Ki [6]: 4 µM

CC[C@@H](C)[C@H](S)C(=O)N[C@@H](C)C(=O)O
Ki [2]: 11 µM | Ki [4]: 0.95 µM | Ki [5]: 0.014 µM | Ki [6]: 0.18 µM

CC[C@@H](C)[C@H](S)C(=O)N[C@@H](Cc1ccc(OCc2cc(C(F)(F)F)cc(C(F)(F)F)c2)cc1)C(=O)O
Ki [2]: 11 µM | Ki [4]: 11 µM | Ki [5]: 0.084 µM | Ki [6]: 25 µM

CC[C@@H](C)[C@H](S)C(=O)N[C@@H](Cc1ccccc1-c1ccccc1)C(=O)O
Ki [2]: 9.9 µM | Ki [4]: 0.19 µM | Ki [5]: 0.037 µM | Ki [6]: 20 µM

CC[C@@H](C)[C@H](S)C(=O)N[C@@H](Cc1ccc(OCc2ccccc2)cc1)C(=O)O
Ki [2]: 4.6 µM | Ki [4]: 0.3 µM | Selectivity ratio [7]: 110 | Ki [5]: 0.0027 µM | Ki [6]: 0.57 µM
